This is an account of results in patent US20110028503A1, “COMPOSITIONS AND METHODS FOR INHIBITION OF THE JAK PATHWAY” (RIGEL PHARMACEUTICALS, INC., priority 2009, published 2011).

Format in all cases: cell-based
The test system of experiment [1] is U937 human monocytic cells stimulated with IFNγ (ICAM-1 up-regulation, JAK/Stat pathway). The experiment in a line: U937 IFNγ ICAM1 FACS assay. The following applies: U-937, IFNγ 10 ng/mL, 18-24 hours, ICAM-1 FACS, read-out: Example 6 IC50 (U937 IFNγ ICAM1 FACS assay). The method, then: U937 human monocytic cells up-regulate ICAM-1 (CD54) surface expression in response to a variety of different stimuli. Therefore, using ICAM-1 expression as readout, compound effects on different signaling pathways can be assessed in the same cell type. IFNγ up-regulates ICAM-1 through activation of the JAK/Stat pathway. In this example, the up-regulation of ICAM-1 by IFNγ was assessed.
U937 cells were grown in 10% RPMI. The cells were then plated at a concentration of 100,000 cells per 160 μL in 96 well flat bottom plates. […] Then 4 μL of test compound was transferred to 76 μL of 10% RPMI resulting in a 10× solution (100 μM test compound, 5% DMSO). For control wells, 4 μL of DMSO was diluted into 76 μL 10% RPMI.
The assay was performed in duplicate with 8 points (8 3-fold dilution concentrations from […]) and with 4 wells of DMSO only (control wells) under stimulated conditions and 4 wells of DMSO only under unstimulated conditions.
The diluted compound plate was mixed 2× using a multimek (Beckman Coulter of Brea, Calif.) and then 20 μL of the diluted compounds was transferred to the 96 well plate containing 160 μL of cells, which were then mixed again twice at low speeds. The cells and compounds were then pre-incubated for 30 minutes at 37° C. with 5% CO2. […]
Both % live cells and ICAM-1 expression was analyzed. […]
(In flow cytometry, cells or beads pass a laser one at a time.)

Experiment [2] deals with primary human T-cells (IL-2 stimulated proliferation; JAK1 and JAK3). The experiment can be described thus: Primary human T-cell proliferation assay stimulated with IL-2. The following applies: IL-2, 72 hours, CellTiter-Glo ATP readout, read-out: Example 4 IC50 (primary human T-cell proliferation stimulated with IL-2). An excerpt: In this assay, primary human T-cells derived from peripheral blood and pre-activated through stimulation of the T-cell receptor and CD28, proliferate in culture in response to the cytokine Interleukin-2 (IL-2). This proliferative response is dependent on the activation of JAK1 and JAK3 tyrosine kinases, which phosphorylate and activate the transcription factor Stat-5. […] A reduction in cell proliferation compared to control conditions is indicative of inhibition of the JAK kinase pathway. An exemplary assay of this type is described in greater detail below.
Primary human T-cells derived from peripheral blood and pre-activated through stimulation of the T-cell receptor and CD28, proliferate in vitro in response to the cytokine Interleukin-2 (IL-2). This proliferative response is dependent on the activation of JAK-1 and JAK-3 tyrosine kinases, which phosphorylate and activate the transcription factor Stat-5.
Human primary T cells were prepared as follows. […] The lymphocytes at the serum: ficoll interface were recovered and washed twice with 5 volumes of PBS. […]
Proliferation was measured using CellTiter-Glo® Luminescent Cell Viability Assay (Promega), which determines the number of viable cells in culture based on quantitation of the ATP present, as an indicator of metabolically active cells. […]
(In general: Cellular ATP, detected with luciferase, serves as a proxy for viable cell number.)

The subject of experiment [3] is human Ramos B cells stimulated with human IL-4 (JAK1 and JAK3 kinases, CD23 upregulation). The experiment in a line: Ramos B-cell line stimulated with IL-4 (CD23 upregulation, FACS). The following applies: IL-4 50 units/mL, 20-24 hours, anti-CD23-PE FACS, read-out: Example 3 IC50 (Ramos B-cell line stimulated with IL-4, CD23). The method, then: One means of assaying for JAK inhibition is detection of the effect of compounds I and II on the upregulation of downstream gene products. In the Ramos/IL4 assay, B-cells are stimulated with the cytokine Interleukin-4 (IL-4) leading to the activation of the JAK/Stat pathway through phosphorylation of the JAK family kinases, JAK1 and JAK3, which in turn phosphorylate and activate the transcription factor Stat-6. […] Twenty to 24 hours post stimulation, cells are stained for upregulation of CD23 and analyzed using flow cytometry (FACS). […] An exemplary assay of this type is described in greater detail below. B-cells stimulated with cytokine Interleukin-4 (IL-4) activate the JAK/Stat pathway through phosphorylation of the JAK family kinases, JAK-1 and JAK-3, which in turn phosphorylate and activate the transcription factor Stat-6. […] To study the effect of inhibitors on the JAK family kinases, human Ramos B cells are stimulated with human IL-4. The Ramos B-cell line was acquired from [NT] No. CRL-1596). The cells were cultured in RPMI 1640 (Cellgro, MediaTech, Inc., Herndon, Va., Cat No. 10-040-CM) with 10% fetal bovine serum (FBS), heat inactivated (JRH Biosciences, Inc, Lenexa, Kans., Cat No. 12106-500M) according to ATCC propagation protocol. […] Cells were then spun down and stained with anti-CD23-PE(BD Pharmingen, San Diego, Calif., Cat No. 555711) and analyzed by FACS. […]

Consider `C#CCOc1ccc(Nc2nc(Nc3ccc(C)c(S(N)(=O)=O)c3)ncc2F)cc1` [Compound I, N2-(3-Aminosulfonyl-4-methylphenyl)-5-fluoro-N4-[4-(prop-2-ynyloxy)phenyl]-2,4-pyrimidinediamine], for which the IC50 in experiment [1] was 565 nM; in experiment [2], 181 nM; in experiment [3], 56 nM.
